Source: ChEMBL document CHEMBL1926526, “Mefloquine-oxazolidine derivatives, derived from mefloquine and arenecarbaldehydes: In vitro activity including against the multidrug-resistant tuberculosis strain T113” (Bioorg Med Chem, 2012)
≈ marks a conversion by molar mass, not a printed value. Calls of active or inactive are those of the source. No cut-off for these calls is given here.

System: Mycobacterium tuberculosis
Assay: Antimycobacterial activity against multiple drug-resistant Mycobacterium tuberculosis isolate T113 by alamar blue assay
Format: functional

SMILES | MIC [µM] | Activity
COc1cccc(C2O[C@@H](c3cc(C(F)(F)F)nc4c(C(F)(F)F)cccc34)[C@H]3CCCCN23)c1 (mixture of isomers) | 25.2 | 
COc1ccc(C2O[C@@H](c3cc(C(F)(F)F)nc4c(C(F)(F)F)cccc34)[C@H]3CCCCN23)cc1 (mixture of isomers) | 25.2 | 
Fc1ccc(C2O[C@@H](c3cc(C(F)(F)F)nc4c(C(F)(F)F)cccc34)[C@H]3CCCCN23)cc1 (mixture of isomers) | 25.8 | 
Oc1ccccc1C1O[C@@H](c2cc(C(F)(F)F)nc3c(C(F)(F)F)cccc23)[C@H]2CCCCN12 (mixture of isomers) | 25.9 | 
Oc1ccc(C2O[C@@H](c3cc(C(F)(F)F)nc4c(C(F)(F)F)cccc34)[C@H]3CCCCN23)cc1 (mixture of isomers) | 25.9 | 
COc1ccccc1C1O[C@@H](c2cc(C(F)(F)F)nc3c(C(F)(F)F)cccc23)[C@H]2CCCCN12 (mixture of isomers) | 12.6 | 
O=[N+]([O-])c1ccc(C2O[C@@H](c3cc(C(F)(F)F)nc4c(C(F)(F)F)cccc34)[C@H]3CCCCN23)s1 (mixture of isomers) | 12.1 | 
FC(F)(F)c1cc([C@@H]2OC(c3cccc(Cl)c3Cl)N3CCCC[C@H]23)c2cccc(C(F)(F)F)c2n1 (mixture of isomers) |  | inactive
FC(F)(F)c1cc([C@@H]2OC(c3ccc(Cl)c(Cl)c3)N3CCCC[C@H]23)c2cccc(C(F)(F)F)c2n1 (mixture of isomers) |  | inactive
FC(F)(F)c1cc([C@@H]2OC(c3ccc(Cl)cc3Cl)N3CCCC[C@H]23)c2cccc(C(F)(F)F)c2n1 (mixture of isomers) |  | inactive
FC(F)(F)c1cc([C@@H]2OC(c3c(Cl)cccc3Cl)N3CCCC[C@H]23)c2cccc(C(F)(F)F)c2n1 (mixture of isomers) |  | inactive
COc1cccc(C2O[C@@H](c3cc(C(F)(F)F)nc4c(C(F)(F)F)cccc34)[C@H]3CCCCN23)c1OC (mixture of isomers) | 11.9 | 
CCOc1cccc(C2O[C@@H](c3cc(C(F)(F)F)nc4c(C(F)(F)F)cccc34)[C@H]3CCCCN23)c1 (mixture of isomers) | 24.5 | 
COc1cc(C2O[C@@H](c3cc(C(F)(F)F)nc4c(C(F)(F)F)cccc34)[C@H]3CCCCN23)cc(OC)c1OC (mixture of isomers) | 22.5 | 
FC(F)(F)c1cc([C@@H]2OC(c3ccccc3)N3CCCC[C@H]23)c2cccc(C(F)(F)F)c2n1 (mixture of isomers) | 26.8 | 
O=[N+]([O-])c1ccc(C2O[C@@H](c3cc(C(F)(F)F)nc4c(C(F)(F)F)cccc34)[C@H]3CCCCN23)o1 (mixture of isomers) | 99.8 | 
FC(F)(F)c1cc([C@@H]2OC(c3ncc[nH]3)N3CCCC[C@H]23)c2cccc(C(F)(F)F)c2n1 (mixture of isomers) | 27.4 | 
CC[C@@H](CO)NCCN[C@@H](CC)CO [ETHAMBUTOL] | 61.2 (≈ 12.5 µg/mL) | 
OC(c1cc(C(F)(F)F)nc2c(C(F)(F)F)cccc12)C1CCCCN1 (centres undefined) [MEFLOQUINE] | 33 (≈ 12.5 µg/mL) | 
